Experimental data from patent US7133717B2, “Tissue electroperforation for enhanced drug delivery and diagnostic sampling” (Johnson & Johnson Consumer Companies, Inc., priority 1999, dated 2006).

How the values were obtained:
Format in all cases: in vivo
Conditions in all cases: two pigs
[1] = Electroperforation (25 pores/cm^2) followed by passive diffusion of erythropoietin for transdermal delivery, plasma erythropoietin by ELISA
Description: (§1) To evaluate the pore transport pathway created through the stratum corneum of the skin by electroperforation, an in vivo experiment was conducted on the back skin of Yorkshire pigs (female, ˜12 kg) using an electrosurgery apparatus (Surgitron™, Ellman International, Inc., Hewlett, N.Y.). The pigs were immobilized with appropriate anesthetics and analgesics. Electrofulguration current was used with a fine wire electrode (0.26 mm in diameter) and power output setting at between scale 3 to 10. A small pore was created on the surface of the skin by carefully moving the electrode towards the skin until the tip of the electrode almost touched the skin. The electrode was quickly moved away from the skin as soon as an electric arc appeared in the gap between the electrode tip and the skin surface.
An electroperforation procedure was conducted in two pigs similar to that in Example 3, followed by passive diffusion of erythropoietin (20 kU/ml, Procrit®, Ortho Biotech, Inc., Raritan, N.J.) at the treatment site. There were 25 pores/cm^2 generated with electroperforation on each pig. The drug chamber based over the electroperforation-treated skin area contained 0.5 ml of erythropoietin solution. Blood samples were collected for erythropoietin analysis with an ELISA method. The erythropoietin delivery procedure was carried out for 7 hours. […]

pigs [2] = assay: Electroperforation (39 pores/cm^2) followed by passive diffusion of insulin for transdermal delivery, blood glucose monitoring
Description: as §1
The electroperforation procedure described in Example 1 was conducted in two pigs with a pore density of 39 pores/cm^2 of the skin and subsequently followed by transdermal insulin delivery with passive diffusion. An insulin-containing chamber was immediately placed onto the electroperforation-treated skin. […] Blood glucose of the pigs was monitored by obtaining blood samples of the ear vein, which were analyzed using two blood glucose analyzers separately to assure the accuracy (One Touch® Basic, LifeScan, Inc., Milpitas, Calif.).

pigs [3] = assay: Electroperforation (9 pores/cm^2) followed by passive diffusion and iontophoresis of insulin for transdermal delivery, blood glucose monitoring
Description: as §1
An electroperforation procedure was conducted in two pigs similar with a pore density of 9 pores/cm^2 on the skin and subsequently was followed by transdermal insulin delivery. The purpose of using a lower pore density in this experiment was to examine the effect of pore number (e.g., the extent of the transport pathway available) to transdermal insulin delivery. The same insulin-containing chamber and drug application procedures were used in this experiment as those in the Example 2. […]

With erythropoietin the plasma erythropoietin concentrations ([1]; one day after the delivery experiment) was “still above the endogenous basal level” and the plasma erythropoietin concentration ([1]; passive diffusion, 0.5 ml of 20 kU/ml solution, during the 7 hour delivery until chambers removed) was “progressive increase”.
With insulin the blood glucose reduction (pigs [2]; 0.5 ml insulin solution 100 U/ml, contact area 2.3 cm^2) was “greater than 50 % of the basal level”, the blood glucose levels (pigs [2]; from the onset of insulin delivery) was “declined rather quickly” and the blood glucose reduction (pigs [3]; during iontophoresis, 4 mA DC, two 30-minute sections at 1.5 hour and 3 hour) was “rapid blood glucose reduction”. The blood glucose levels (pigs [3]; first 1.5 hours, passive diffusion only) was “did not decline”.
